Results published in article PMC10215198, “Antibacterial Conjugates of Kanamycin A with Vancomycin and Eremomycin: Biological Activity and a New MS-Fragmentation Pattern of Cbz-Protected Amines” (Antibiotics, 2023).
Values after ≈ are worked out from the molar mass of the structure shown.

How the values were obtained:
S. haemolyticus 602 = assay: MIC, broth micro-dilution, Gram-positive clinical isolate; type: cell-based, Staphylococcus haemolyticus; details: Mueller Hinton broth, inoculum 5 × 10^5 CFU/mL, 24 h at 36 °C
Method: (§1) We performed a study of antibacterial activity of the synthesized compounds 17 on a panel of clinical isolates of the Gram-positive microorganisms S. haemolyticus 602, S. aureus 3798 (VISA), and Enterococcus faecalis 560 (Van A) and against the Gram-negative strain Escherichia coli 25922 ATCC by the MTT method (Table 1).
(§2) The in vitro study was performed according to the recommendations of the European Committee on Antimicrobial Susceptibility testing. The MIC values for Gram-positive and Gram-negative bacterial strains were determined by the broth micro-dilution method using Mueller Hinton broth (Acumedia Manufacturers Inc., Lansing, MI, USA) and the National Committee for Clinical Laboratory Standards procedures as described earlier.

S. aureus 3798 (VISA) = assay: MIC, broth micro-dilution, Gram-positive clinical isolate (VISA); type: cell-based, Staphylococcus aureus; details: Mueller Hinton broth, inoculum 5 × 10^5 CFU/mL, 24 h at 36 °C
Method: as §1, §2

[1] = test system: Escherichia coli 25922 ATCC; assay: MIC, broth micro-dilution, Gram-negative strain; type: cell-based; details: Mueller Hinton broth, inoculum 5 × 10^5 CFU/mL, 24 h at 36 °C
Method: as §1, §2

[2] = test system: Enterococcus faecalis 560 (Van A); assay: MIC, broth micro-dilution, Gram-positive clinical isolate (Van A); type: cell-based; details: Mueller Hinton broth, inoculum 5 × 10^5 CFU/mL, 24 h at 36 °C
Method: as §1, §2

Gram-positive bacteria = details: compared with vancomycin; cited from earlier work
From the text: Another antibiotic drug of this class, eremomycin (2), was discovered at the Gause Institute of New Antibiotics. It was isolated from Amycolatopsis orientalis subsp.

Compound	MIC (Minimum Inhibitory Antibiotic Concentration), S. haemoliticus 602 (S. haemolyticus 602)	MIC (Minimum Inhibitory Antibiotic Concentration), S. aureus 3798 (VISA) (S. aureus 3798 (VISA))	MIC (Minimum Inhibitory Antibiotic Concentration), E. coli 25922 ATCC [1]	MIC (Minimum Inhibitory Antibiotic Concentration), E. coli 25922 ATCC ([1]; listed as 1)	MIC (Minimum Inhibitory Antibiotic Concentration), E. faecalis 560 (Van A) [2]	MIC (Minimum Inhibitory Antibiotic Concentration), E. coli 25922 ATCC ([1]; listed as 2)	efficacy against Gram-positive bacteria relative to vancomycin (Gram-positive bacteria)
CN[C@H](CC(C)C)C(=O)N[C@H]1C(=O)N[C@@H](CC(N)=O)C(=O)N[C@H]2C(=O)N[C@H]3C(=O)N[C@H](C(=O)N[C@H](C(=O)O)c4cc(O)cc(O)c4-c4cc3ccc4O)[C@H](O)c3ccc(c(Cl)c3)Oc3cc2cc(c3O[C@@H]2O[C@H](CO)[C@@H](O)[C@H](O)[C@H]2O[C@H]2C[C@](C)(N)[C@H](O)[C@H](C)O2)Oc2ccc(cc2Cl)[C@H]1O [Vancomycin (1), Vancomycin]	1 µg/mL (≈ 0.69 µM)	8 µg/mL (≈ 5.52 µM)	>64 µg/mL	> 64 µg/mL	>64 µg/mL		
3,6′-Di-Cbz-Kanamycinyl A 1-Amide of Vancomycin [Compound 5]		2 µg/mL	>64 µg/mL		32 µg/mL		
Kanamycinyl A 1-Amide of Eremomycin [Compound 7]	0.25 µg/mL	2 µg/mL	>64 µg/mL		32 µg/mL		
NC1CC(NC(=O)OCc2ccccc2)C(OC2OC(CNC(=O)OCc3ccccc3)C(O)C(O)C2O)C(O)C1OC1OC(CO)C(O)C(N)C1O (centres unmarked) [Compound 4, 3,6′-Di-Benzyloxycarbonyl-Kanamycin A]			>64 µg/mL				
3,6′-Di-Cbz-Kanamycinyl A 1-Amide of Eremomycin [Compound 6]		4 µg/mL	>64 µg/mL		8 µg/mL		
Kanamycin A [Kanamycin A (3)]			4 µg/mL				
CN[C@H](CC(C)C)C(=O)N[C@H]1C(=O)N[C@@H](CC(N)=O)C(=O)N[C@H]2C(=O)N[C@H]3C(=O)N[C@H](C(=O)N[C@@H](C(=O)O)c4cc(O)cc(O)c4-c4cc3ccc4O)[C@H](O[C@@H]3C[C@@](C)(N)[C@H](O)[C@@H](C)O3)c3ccc(cc3)Oc3cc2cc(c3O[C@H]2O[C@@H](CO)[C@H](O)[C@@H](O)[C@@H]2O[C@H]2C[C@](C)(N)[C@@H](O)[C@H](C)O2)Oc2ccc(cc2Cl)[C@H]1O (stereo in doubt) [Eremomycin (2), Eremomycin]	0.25 µg/mL (≈ 0.16 µM)	16 µg/mL (≈ 10.3 µM)	64 µg/mL (≈ 41.1 µM)		>64 µg/mL	> 64 µg/mL	three to five times higher
